Laboratory results as given in patent publication US20100009970A1, “COMPOSITIONS AND METHODS FOR TREATMENT OF VIRAL DISEASES” (Combinatorx (Singapore) Pte. Ltd., priority 2008, published 2010).
Read-outs that look alike come from different tables or passages of the source.

Key:
[1] = test system: Huh7 cells expressing a subgenomic RNA replicon of Con1 (genotype 1b) sequence origin
in vitro = conditions: human
[2] = test system: Huh7 cells expressing a subgenomic RNA replicon of Con1 (genotype 1b) sequence origin; test: microbe, parasite or virus in culture; conditions: Hepatitis C virus
[3] = Huh-7, read-out: IC50 (uM) [SG]
[4] = Huh-7, read-out: Max Effect@CC30 (inhibition)
[5] = GETYPE1B, Huh-7, 72 h, read-out: Max Effect @CC30 (inhibition)
[6] = Huh-7, read-out: Max Effect @CC30 (inhibition)
[7] = Huh-7, read-out: Max effect @CC30 (%)

SMILES | IC50 [1] | CC50 (in vitro; CC50 (uM) [SG]) | IC50 [2, 3] | Emax [2, 4] | also measured
O=C(O)CN(CC(=O)O)c1ccccc1OCCOc1ccccc1N(CC(=O)O)CC(=O)O [1,2-Bis-(2-aminophenoxy)ethane N,N,N,N,-tetreacetic acid, reference compound] | 14.5 µM |  |  |  | 
O=[N+]([O-])c1ccc2nc(N3CCNCC3)ccc2c1 [6-Nitroquipazine, reference compound] | 16.4 µM |  |  |  | 
CC(=O)O[C@@]12CO[C@@H]1C[C@H](O)[C@@]1(C)C(=O)[C@H](O)C3=C(C)[C@@H](O)C[C@@](O)([C@@H](OC(=O)c4ccccc4)[C@H]21)C3(C)C [10-Deacetylbaccatine Iii, reference compound] | 10.3 µM |  |  |  | 
N#C/C(=C/c1ccc(O)c(O)c1)C(=O)NCc1ccccc1 [AG-490, tyrphostin AG-490, reference compound] | 5.03 µM |  |  |  | 
COc1ccc(C[C@H]2NC[C@H](O)[C@H]2OC(C)=O)cc1 [Anisomycin, reference compound] | 0.608 µM |  |  |  | 
CC(C)(C)c1cc(O)c(C(C)(C)C)cc1O [BHQ, reference compound] | 23.3 µM |  |  |  | 
Cc1ccc(S(=O)(=O)/C=C/C#N)cc1 [Bay 11-7082, reference compound] | 15 µM |  |  |  | 
Nc1nc(-c2nn(Cc3ccccc3F)c3ncccc23)ncc1C1CC1 [Bay 41-2272, reference compound] | 0.754 µM |  |  |  | 
CC1=C(/C=C/C(C)O)C(C)(C)CCC1 (stereo not drawn) [Beta-Ionol] | 21 µM |  |  |  | 
Nc1ccccc1NC(=O)CCCCCCC(=O)Nc1ccccc1 [CAY10433, reference compound] | 7.88 µM |  |  |  | 
C/C1=C2/[N-]C([C@H](CC(N)=O)[C@@]2(C)CCC(=O)NC[C@@H](C)OP(=O)([O-])O[C@H]2[C@@H](O)[C@@H](n3cnc4cc(C)c(C)cc43)O[C@@H]2CO)[C@]2(C)N=C(/C(C)=C3N=C(/C=C4N=C1[C@@H](CCC(N)=O)C\4(C)C)[C@@H](CCC(N)=O)[C@]\3(C)CC(N)=O)[C@@H](CCC(N)=O)[C@]2(C)CC(N)=O.[CH2-][C@H]1O[C@@H](n2cnc3c(N)ncnc32)[C@@H](O)[C@@H]1O.[Co+3] [Cobamamide, cobamamide, reference compound] | 0.41 µM |  |  |  | 
O=c1cc(N2CCOCC2)oc2c1ccc1ccccc12 [DNA-PK inhibitor II, reference compound] | 6.52 µM |  |  |  | 
C[C@]12CC[C@H]3[C@@H](CCC4=CC(=O)CC[C@@]43C)[C@@H]1CC[C@@H]2C(=O)CO [Desoxycorticosterone (e.g., acetate), deoxycorticosterone, reference compound] | 14.7 µM |  |  |  | 
CN(C1CC1)[C@H]1CC[C@@H](c2ccc(Cl)c(Cl)c2)c2ccccc21 [N-Cyclopropyl Sertraline, (1S,4S)—N-cyclopropyl-4-(3,4-dichlorophenyl)-N-methyl-1,2,3,4-tetrahydronaphthalen-1-amine] |  | > 50 µM | 14.5 µM | 99% | IC90 ([2]; Huh-7): 34.2 µM
CN(CCO)[C@H]1CC[C@@H](c2ccc(Cl)c(Cl)c2)c2ccccc21 [N-Ethanol Sertraline, 2-(((1S,4S)-4-(3,4-dichlorophenyl)-1,2,3,4-tetrahydronaphthalen-1-yl)(methyl)amino)ethanol] |  | 49.8 µM | 7.8 µM | 93% | IC90 ([2]; Huh-7): 21.9 µM
CN[C@H]1CC[C@@H](c2ccc(Cl)c(Cl)c2)c2ccc([N+](=O)[O-])cc21 [Nitro Sertraline, (1S,4S)-4-(3,4-dichlorophenyl)-N-methyl-7-nitro-1,2,3,4-tetrahydronaphthalen-1-amine] |  | 8.03 µM | 6.46 µM | 27% | CC50 (in vitro; CC50 (uM)): 8.03 µM; Emax [2, 5]: 27%; IC50 ([2]; Huh-7, 72 h): 6.46 µM
CN[C@H]1CC[C@@H](c2ccc(Cl)c(Cl)c2)c2ccc(C(N)=O)cc21 [Sertraline A ring carboxamide, (5S,8S)-5-(3,4-dichlorophenyl)-8-(methylamino)-5,6,7,8-tetrahydronaphthalene-2-carboxamide] |  | 16.2 µM | 1.8 µM |  | 

SMILES | IC50 [1] | CC50 (in vitro; CC50 (uM) [SG]) | IC50 [2, 3] | Emax [2, 4] | also measured
CN[C@H]1CC[C@@H](c2ccc(Cl)c(Cl)c2)c2ccc(C(=O)Nc3ccccc3)cc21 [Sertraline A-Ring Benzamide, (5S,8S)-5-(3,4-dichlorophenyl)-8-(methylamino)-N-phenyl-5,6,7,8-tetrahydronaphthalene-2-carboxamide] |  | 3.89 µM | 2.73 µM | 48.6% | 
CNC(=O)c1ccc2c(c1)[C@@H](NC)CC[C@H]2c1ccc(Cl)c(Cl)c1 [Sertraline A-Ring Methyl Carboxamide, (5S,8S)-5-(3,4-dichlorophenyl)-N-methyl-8-(methylamino)-5,6,7,8-tetrahydronaphthalene-2-carboxamide] |  | 11.1 µM | 2.82 µM | 81.2% | 
CN[C@H]1CC[C@@H](c2ccc(Cl)c(Cl)c2)c2ccc(CSC)cc21 [Sertraline A-Ring Methylsulfide, (1S,4S)-4-(3,4-dichlorophenyl)-N-methyl-7-(methylthiomethyl)-1,2,3,4-tetrahydronaphthalen-1-amine] |  | 6.18 µM | 4.18 µM | 14.8% | 
CN[C@H]1CC[C@@H](c2ccc(Cl)c(Cl)c2)c2ccc(N(C)C)cc21 [Sertraline A-Ring N,N-Dimethylamine, (1S,4S)-4-(3,4-dichlorophenyl)-N1,N7,N7-trimethyl-1,2,3,4-tetrahydronaphthalene-1,7-diamine] |  | 6.22 µM | 3.52 µM | 35.1% | CC50 (in vitro; CC50 (uM)): 6.22 µM; IC50 ([2]; Huh-7): 3.52 µM; IC90 ([2]; Huh-7): 5.82 µM
CN[C@H]1CC[C@@H](c2ccc(Cl)c(Cl)c2)c2ccc(NC(=O)c3ccccc3)cc21 [Sertraline A-Ring Reverse Benzamide, N-((5S,8S)-5-(3,4-dichlorophenyl)-8-(methylamino)-5,6,7,8-tetrahydronaphthalen-2-yl)benzamide] |  | 3.67 µM | 2.94 µM | 62.2% | CC50 (in vitro; CC50 (uM)): 3.67 µM; IC50 ([2]; Huh-7): 2.94 µM; IC90 ([2]; Huh-7): 3.88 µM
CN[C@H]1CC[C@@H](c2ccc(Cl)c(Cl)c2)c2ccc(NC(C)=O)cc21 [Sertraline A-Ring Reverse Carboxamide, N-((5S,8S)-5-(3,4-dichlorophenyl)-8-(methylamino)-5,6,7,8-tetrahydronaphthalen-2-yl)acetamide] |  | 12 ± 1.77 µM | 0.91 ± 0.08 µM | 83 ± 6.55% | CC50 (in vitro; CC50 (uM)): 10.7 µM; IC50 ([2]; Huh-7): 0.85 µM; IC90 ([2]; Huh-7): 7.26 µM; Emax [2, 6]: 87.7%; Emax [2, 7]: 83 ± 6.55%; IC50 ([2]; Huh-7, read-out: SA IC50 (uM)): 0.91 ± 0.08 µM
CCCCC(=O)Nc1ccc2c(c1)[C@@H](NC)CC[C@H]2c1ccc(Cl)c(Cl)c1 [Sertraline A-Ring Reverse Pentanamide, N-((5S,8S)-5-(3,4-dichlorophenyl)-8-(methylamino)-5,6,7,8-tetrahydronaphthalen-2-yl)pentanamide] |  | 4.32 µM | 3.67 µM | 33.1% | CC50 (in vitro; CC50 (uM)): 4.32 µM; IC50 ([2]; Huh-7): 3.68 µM; IC90 ([2]; Huh-7): 5.03 µM; Emax [2, 6]: 33.1%
CN[C@H]1CC[C@@H](c2ccc(Cl)c(Cl)c2)c2ccc(C(N)=S)cc21 [Sertraline A-Ring Thiocarboxamide, (5S,8S)-5-(3,4-dichlorophenyl)-8-(methylamino)-5,6,7,8-tetrahydronaphthalene-2-carbothioamide] |  | 13.2 µM | 7.19 µM |  | 
CN[C@H]1CC[C@@H](c2ccc(Cl)c(Cl)c2)c2ccc(C(=O)Nc3ccccn3)cc21 [Sertraline A-ring Pyridine Carboxamide, (5S,8S)-5-(3,4-dichlorophenyl)-8-(methylamino)-N-(pyridin-2-yl)-5,6,7,8-tetrahydronaphthalene-2-carboxamide] |  | 7.05 µM | 4.43 µM | 61.3% | 
CNC1CCC(c2ccc(Cl)c(Cl)c2)c2ccsc21 (stereo not shown) [Sertraline A-ring Thiophene] |  | 18.8 ± 0.93 µM | 8.27 ± 0.46 µM | 80.8 ± 2.55% | Emax [2, 7]: 80.8 ± 2.55%; IC50 ([2]; Huh-7, read-out: SA IC50 (uM)): 8.27 ± 0.46 µM
CN[C@H]1CC[C@@H](c2ccc(Cl)c(Cl)c2)c2ccc(N)cc21 [Sertraline Aniline, (1S,4S)-4-(3,4-dichlorophenyl)-N1-methyl-1,2,3,4-tetrahydronaphthalene-1,7-diamine] |  | 8.72 µM | 6 µM | 50% | CC50 (in vitro; CC50 (uM)): 8.72 µM; Emax [2, 5]: 50%; IC50 ([2]; Huh-7, 72 h): 6 µM
CNC1CCC(c2cccc(OC)c2)c2ccccc21 (stereo not shown) [Sertraline B ring m-Methoxy, 4-(3-methoxyphenyl)-N-methyl-1,2,3,4-tetrahydronaphthalen-1-amine] |  | > 50 µM | 28.8 µM |  | 
CNC1CCC(c2ccc(OC)cc2)c2ccccc21 (stereo not shown) [Sertraline B-Ring Para-Methoxy, 4-(4-methoxyphenyl)-N-methyl-1,2,3,4-tetrahydronaphthalen-1-amine] |  | 51.1 µM | 26.8 µM |  | 
CN[C@H]1CC[C@@H](c2ccc(Cl)c(Cl)c2)c2ccc(I)cc21 [Sertraline Iodide, (1S,4S)-4-(3,4-dichlorophenyl)-7-iodo-N-methyl-1,2,3,4-tetrahydronaphthalen-1-amine] |  | 8.92 µM | 6.57 µM | 25% | CC50 (in vitro; CC50 (uM)): 8.92 µM; Emax [2, 5]: 25%; IC50 ([2]; Huh-7, 72 h): 6.57 µM
CN[C@H]1CC[C@@H](c2ccc(Cl)c(Cl)c2)c2ccc(S(=O)(=O)NCCO)cc21 [Sertraline Sulfonamide Ethanol, (5S,8S)-5-(3,4-dichlorophenyl)-N-(2-hydroxyethyl)-8-(methylamino)-5,6,7,8-tetrahydronaphthalene-2-sulfonamide] |  | 13.8 µM | 8.13 µM | 80% | CC50 (in vitro; CC50 (uM)): 13.8 µM; Emax [2, 5]: 80%; IC50 ([2]; Huh-7, 72 h): 8.13 µM
CN[C@H]1CC[C@@H](c2ccc(Cl)c(Cl)c2)c2ccc(C(=O)NCC(=O)OC)cc21 [methyl 2-((1S,4S)-1-(3,4-dichlorophenyl)-4-(methylamino)-1,2,3,4-tetrahydronaphthalene-6-carboxamido)acetate] |  | 22.9 µM | 6.69 µM |  | 
